Data from patent publication US6451852B2, “Phenylacetonitrilealkylaminoalkyl-ortho-substituted aryl compounds as immunosuppressives” (G. D. Searle & Co., priority 1989, dated 2002).
Structures can show the parent of a compound that is named as a salt.

Legend:
[1] = system: excised aortic segment (Ca++ induced vascular smooth muscle contraction); assay: Assay F: Calcium Antagonist Effects; conditions: K+ (100 mM) depolarized aortic segment, 1 hr incubation with test compound at 10^-6M
Method: Assay F: Calcium Antagonist Effects
An excised aortic segment was mounted in a tissue bath containing modified Krebs solution. After depolarization of the tissue with K^+ (100 mM), Ca^++, in cumulative concentrations of 10^−3M, 3.2×10^−3M and 10^−2M, was injected into the bath to produce vascular smooth muscle contraction. The developed tension (g) was measured and control dose-response values are obtained. After 1 hr incubation with a test compound at 10^−6M concentration, the same doses of Ca^++ are repeated. The log dose-response curves of control and after treatment were analyzed by linear regression.

[2] = system: ConA-stimulated spleen cells from female Balb/c mice; assay: Assay A: Suppression of Mitogen-Stimulated Proliferation (Murine); format: cell-based, mouse; conditions: inhibition of ConA-stimulated proliferation of murine spleen cells, 5 days, MTT
Source text: Assay A: Suppression of Mitogen-Stimulated Proliferation (Murine)
It is known that lymphocyte activation can be polyclonally stimulated by plant lectins and other mitogens that induce blast transformation and mitosis. Certain mitogens like Concanavalin A (ConA), preferentially activate T-lymphocytes. Exposure to ConA results in polyclonal activation of T-cells and can be used as an in vitro index for general immunomodulation of pan T-cell activity. In this assay spleen cells harvested from female Balb/c mice were incubated at 37° C., in 95% air/5% CO2 atmosphere in 96 well microtiter plates (10^5 cells/well) for 5 days with Iscove's modified Dulbecco's medium [25 mM HEPES 2 mM L-glutamine, 5% fetal bovine serum and 2-mercaptoethanol (40 μM)] (100 μl/well), concanavalin A (ConA) alone (Sigma, St. Louis, Mo.; 1.0 μg/ml) or ConA in the presence of test compounds (0.001-25 μM). Inhibition of ConA-stimulated proliferation was measured by calorimetric indicator of growth and proliferation, MTT (3-(4,5-dimethylthiazol-2-yl)-2 diphenyl tetrazolium bromide; (100 μl/well, 1 mg/ml) Sigma) [Mosmann, T., J. of Immunological Methods, 65, 55-63, […]]. After four hours, plates were centrifuged (1200 rpm) media supernatants aspirated and dye loaded cells were solubilized in isopropanol (150 μl/well). The absorbance was measured on an ELISA plate reader with a test wavelength of 570 nm and a reference of 630 nm. The IC50 values for active immunosuppressant compounds were calculated by four parameter logistic regression analysis of the results [Delean et al, Am. J. Physiol., 2, 397 (1978)].

[3] = system: human peripheral blood mononuclear cells (PMNC) cocultured with mitomycin-C inactivated Raji stimulator cell line; assay: Assay C: One-Way Mixed Lymphocyte Reaction (Human); format: cell-based; conditions: one-way MLR, human PMNC vs Raji, 120 hours, 3H-thymidine
Source text: Assay C: One-Way Mixed Lymphocyte Reaction (Human)
The mixed lymphocyte reaction (MLR) is an assay that measures T-cell blast cell transformation and mitosis which occurs when lymphocytes from different major and minor histocompatibility complex (MHC) haplotypes are cocultured. This response is considered a “one-way MLR” when stimulator cells are made unresponsive by inhibition of DNA synthesis (treatment with mitomycin-C or gamma-irradiation) prior to coculture with responder cells. This assay can be used as an indicator of the cellular immunomodulation mechanisms involved in transplant rejection. In this assay, human peripheral blood mononuclear cells(PMNC) were used as the responder cell population and were isolated from normal donor blood as follows: Blood samples were collected in LeucoPREP™ tubes (Becton Dickinson, Lincoln Park, N.J.) and the mononuclear cell preparation was obtained by following the manufacturers procedures. Isolated mononuclear cells were co-incubated at 6×10^4 cells/well with a stimulator cell line at 2×10^4 cells/well in RPMI 1640 medium containing 5% fetal bovine serum and 2-mercaptoethanol (40 μM). The stimulator cell line, Raji, which was derived from a human Burkitt lymphoma (American Type Culture Collection, Rockville Md.) was previously inactivated by mitomycin-C treatment (Sigma, St. Louis Mo., 25 μg/ml, 370 for 30 minutes). After repeated washings of mitomycin-C from the stimulator cell line, cocultures were incubated in 96 well microtiter plates at 37° C., in 95% air/5% CO2 atmosphere for 120 hours in the presence or absence of test compounds (0.1-25 μM). Inhibition of proliferation was measured by reduced incorporation of ^3H-thymidine (0.5 μCi/well, added during the last 24 hours of the assay). The IC50 values for the immunosuppressant compounds were calculated by four parameter logistic regression analysis of the results [Delean et al, Id.]

[4] = system: PHA stimulated human donor peripheral blood mononuclear cells (PMNC); assay: Assay B: Suppression of Human Mitogen Stimulation; format: cell-based; conditions: inhibition of PHA stimulated proliferation of human PMNC, 96 hrs, 3H-thymidine
Method: Assay B: Suppression of Human Mitogen Stimulation Assay
Normal human donor peripheral blood mononuclear cells (PMNC) were isolated by density centrifugation using Ficoll-Paque(Pharacia LKB, Uppsala Sweden, 350 RCF 45 minutes). Cells were washed and incubated at 37° C. in 95%air/5% CO2 atmosphere in 96 well microtiter plates (2×10^5 cells/well) for 96hrs with RPMI 1640 medium containing 5% fetal bovine serum and 2-mercaptoethanol ([…]), Phytohemagglutinin (Difco, Detroit, MI 10 μg/ml) in the presence or absence of test compounds. Inhibition of PHA stimulated proliferation was measured by reduced incorporation of ^3H-thymidine (0.5 μCi/well, added during the last 24 hours of the assay). When possible, the IC50 values for active immunosuppressant compounds were calculated by four parameter logistic regression analysis of the results [Delean et al, DE ].

[5] = system: anesthetized spontaneously hypertensive rat; assay: Assay H: Blood Pressure Reducing Effects; format: in vivo; conditions: intragastrically at 10^-3M, readings 1, 2, 3 and 4 hours after administration
Method: Assay H: Blood Pressure Reducing Effects
Systemic blood pressure effects were assessed in vivo in an anesthetized spontaneously hypertensive rat. The test compound was administered intragastrically at 10^−[…]. Initial mean arterial blood pressure (MAP) was measured directly via a previously implanted arterial catheter immediately before administration of the compound. Blood pressure readings were made 1, 2, 3, and 4 hours after administration of the test compound.

Human mononuclear cells = assay: Assay D: Calcium Flux Assay (human mononuclear cells); format: cell-based; conditions: at 2×, 5× and 10× the IC50 values of Assay A
Source text: Assay D: Calcium Flux Assay
One of the earliest requirements of lymphocyte activation involves the rapid mobilization of intracellular calcium and the sustained influx of extracellular calcium. These cellular responses to lymphocyte activators can be measured by calcium-binding fluorescent dyes such as Indo-1 [P. S. Rabinovitch, et al J. Immunol, 137, 952 (1986)]. The rapid and sustained changes in intracellular calcium can be used to discriminate classes of immunomodulatory compounds which alter early events in lymphocyte activation. Human mononuclear cells or the human Jurkat T-cell line (ATCC, Rockville Md.) were loaded with the calcium-sensitive dye, Indo-1 (5 μM), washed and incubated for 2-5 minutes in the presence or absence of test compounds. Calcium flux was initiated in lymphocytes by the binding of crosslinked antibody to the T cell receptor(αCD3 at 250 ng/ml followed by goat-anti-mouse IgG) or the lectin Phytohemagglutinin (PHA, 100 ug/ml). Jurkat cell activation was initiated by the addition of purified antibody to the T cell receptor (αCD3, 250 ng/ml). Subsequent changes in the concentration if intracellular calcium was monitored over time (6 min) by flow cytometry (Epics 753, Coulter Electronics, Hialeah Fla.) to determine modulation of the initial calcium-mediated activation of the cells [P. S. Rabinovitch, et al, E]. […]

adult male SHR = assay: Assay G: Calcium Channel Blocker Effects (vascular resistance, microspheres); format: in vivo, rat; conditions: I.V. bolus of 1.0 mg/kg, Control (DMSO) 240
Method: Assay G: Calcium Channel Blocker Effects
Under ether anesthesia, the jugular vein, femoral artery and left ventricle of adult male SHR were cannulated. After a 3-5 hour recovery period, animals ere treated with either test compound or placebo. Ten minutes was allowed for steady state conditions to be reached. Arterial pressure was then monitored via the femoral cannula. Immediately after this measurement, the reference blood sample was taken and radioactively-labeled microspheres were injected into the left ventricle. Rats were then sacrificed; organs were removed, weighed and counted. Cardiac output was computed. Percent cardiac output distribution per gram tissue, flow per gram tissue, and resistance times gram tissue were calculated fro the following organs: brain, heart, kidneys, splanchnic organs (liver plus pancreas, spleen and G. I. tract), skeletal muscle and skill. The tested compound was administered as an I.V. bolus of 1.0 mg/kg. Differences in mean values between treatment and control groups were analyzed by a one-way one variable analysis and least significant difference test.

Row | IC50 [3] [µM] | SMILES | IC50 ([2]; Mus musculus, 120 h) [µM] | IC50 ([4]; Homo sapiens, PBMC) [µM] | other results
1 | – | COC(=O)c1cc(OC)c(OC)cc1CCN(C)CCCC(C#N)(c1ccc(OC)c(OC)c1)C(C)C (stereo not shown) [Example 1, methyl 2-[2-[[4-cyano-4-(3,4-dimethoxyphenyl)-5-methylhexyl]methylamino]ethyl]-4,5-dimethoxybenzoate] | – | – | pA2 [1]: 6.81
2 | 4.3 | COC(=O)c1cc(OC)c(OC)cc1CCN(C)CCCC(C#N)(c1ccc(OC)c(OC)c1)C(C)C (stereo not shown) [Example 2, methyl 2-[2-[[4-cyano-4-(3,4-dimethoxyphenyl)-5-methylhexyl]methylamino]ethyl]-4,5-dimethoxybenzoate, 2-hydroxy-1,2,3-propanetricarboxylic acid salt] | 7.1 | 5.4 | –
3 | – | COC(=O)c1cc(OC)c(OC)cc1CCN(C)CCCC(C#N)(c1ccc(OC)c(OC)c1)C(C)C (stereo not shown) [Example 3, methyl 2-[2-[[4-cyano-4-(3,4-dimethoxyphenyl)-5-methylhexyl]methylamino]ethyl]-4,5-dimethoxybenzoate, 2,3-dihydroxybutanedioic acid salt] | – | – | IC50 [2]: 8.7 µM; IC50 [4]: 5.3 µM
4 | 8.9 | COc1ccc(C(C#N)(CCCN(C)CCc2cc(OC)c(OC)cc2C(=O)NC(C)(C)C)C(C)C)cc1OC (stereo not shown) [Example 4, 2-[2-[[4-cyano-4-(3,4-dimethoxyphenyl)-5-methylhexyl]methylamino]ethyl]-N-(1,1-dimethylethyl)-4,5-dimethoxybenzamide, 2-hydroxy-1,2,3-propanetricarboxylic acid salt] | 13.3 | 9.9 | Decrease in MAP [5]: 18 mm Hg; pA2 [1]: 6.56
5 | 20.2 | CCNC(=O)c1cc(OC)c(OC)cc1CCN(C)CCCC(C#N)(c1ccc(OC)c(OC)c1)C(C)C (stereo not shown) [Example 5, 2-[2-[[4-cyano-4-(3,4-dimethoxyphenyl)-5-methylhexyl]methylamino]ethyl]-N-ethyl-4,5-dimethoxybenzamide, 2,3-dihydroxybutanedioic acid salt] | > 25 | > 25 | Decrease in MAP [5]: 20 mm Hg; inhibition of calcium flux (Human mononuclear cells): inhibited calcium flux in a dose dependent manner
6 | – | COc1ccc(C(C#N)(CCCN(C)CCc2cc(OC)c(OC)cc2C)C(C)C)cc1OC (stereo not drawn) [Example 6, α-[3-[[2-(4,5-dimethoxy-2-methylphenyl)ethyl]methylamino]propyl]-3,4-dimethoxy-α-(1-methylethyl)benzeneacetonitrile, 2,3-dihydroxybutanedioic acid salt] | – | – | vascular resistance in the brain (adult male SHR): 149 mm Hg min. g/ml
7 | 15.5 | COc1ccc(C(C#N)(CCCN(C)CCc2cc(OC)c(OC)cc2/C=C/C(C)=O)C(C)C)cc1OC (stereo not drawn) [Example 7, α-[3-[[2-[4.5-dimethoxy-2-(3-oxo-1E-butenyl)phenyl]ethyl]methylamino]-propyl]-3,4-dimethoxy-α-(1-methylethyl)benzeneacetonitrile] | 7.9 | – | –
